Laboratory results taken from patent publication US10894087B2, “Multi-arm polymeric prodrug conjugates of cabazitaxel-based compounds” (Nektar Therapeutics, priority 2010, dated 2021).
Like-named read-outs stand apart in the source and are kept apart here.

Tests used:
[1] = Maximum tolerated dose (MTD) study of PEGylated conjugates of cabazitaxel in athymic mice; type: in vivo, female athymic nu/nu mice; conditions: qw x 3, iv; for BW Nadir / BW Nadir (day) / Treatment-Related Deaths: MTD study 20K conjugates; for Treatment-Related Deaths: N=5
Description: Purpose. This study was performed to determine appropriate doses of each compound for tumor xenograft studies. In those studies, it is desirable to administer the maximum dose of test compound that will not cause excessive loss of body weight. In general, loss of ˜15% of the initial body weight of the animal is typically the maximum desired.
Experimental procedure. MTD for 4-arm-conjugated to cabazitaxel were determined in female athymic nu/nu mice using standard methods. Briefly, 8-12 week old mice were administered test compounds or cabazitaxel intravenously at one week intervals for a total of three doses per mouse (qw×3, iv) as shown in Tables 1 and 2. For all PEG-conjugated test compounds, the doses of both the conjugate and released cabazitaxel, calculated from the cabazitaxel content of the respective conjugate, are shown. […] PEG-cabazitaxel conjugates were prepared in D5W. […] Mice were observed daily for clinical signs and body weights were recorded on days 1-5 and then biweekly until the end of study. All procedures were conducted in compliance with IACUC requirements. […] For any group with two measurements of mean body weight loss of greater than 20%, dosing was stopped and recovery was allowed. Within a group with greater than 20% mean weight loss, individual animals greater than 30% body weight loss were euthanized. Compound dosing was terminated for any group in which mean weight loss exceeded 20% or >10% of animals died. Moribund animals were euthanized and all animals were euthanized at end of study (day 30).
Results. The results for the study MTD “20K Conjugates” are summarized in Table 3 and FIG. 1 while the results for the MTD “30K and 40K Conjugates” study are summarized Table 4 and FIG. 2. […] It should be noted that this is not meant to be a definitive MTD, but is simply a guide to select an appropriate dose for conducting tumor xenograft studies using this administration route and schedule. Note too, that these MTD are given as cabazitaxel equivalents. The actual dose of each conjugate must be corrected for the wt % of cabazitaxel in that specific conjugate.

[2] = tested on: H460 non-small cell lung cancer (NSCLC) implants; conditions: for % TGD / Median TTE (Median Time to Endpoint) / TGD (tumor growth delay compared to vehicle) / CR (Number of Complete Regressions) / Deaths / PR (Number of Partial Regressions) / TFS (Number of Tumor Free Survivors) / MTV (Median Tumor Volume): iv, qwk x 3; for CR (Number of Complete Regressions) / Deaths / PR (Number of Partial Regressions) / TFS (Number of Tumor Free Survivors): N=10; for Complete regression, i.e., no detectable tumor (number of animals): through day 45, dose not given
Description: Purpose. Studies were conducted to assess the growth inhibitory effects of PEGylated-conjugates of cabazitaxel on H460 non-small cell lung cancer (NSCLC) implants in athymic nu/nu mice.
Experimental plan. These studies were conducted using routine methods and materials that are familiar to those skilled in the art. Briefly, 8 to 12 week old female nu/nu mice were injected subcutaneously in the flank with 1×10^7 H460 tumor cells in 0.2 mL sterile buffer. […] Animals received three intravenous doses of test article at one week intervals beginning on day 1. Cabazitaxel solutions were prepared in D5W containing 5% Tween 80:10% ethanol. PEG-cabazitaxel conjugates were prepared in D5W. The administration volume for all test articles was 10 mL/kg. The test doses were selected to represent the MTD and ½ the MTD for each test compound. The tables list the actual mg/kg for each test article and the corresponding cabazitaxel equivalent calculated based on the weight-percent cabazitaxel content for each PEGylated conjugate.
Animals were weighed on days 1-5, 7, 9, 11, 13 then biweekly until the end of the study. Tumor sizes were measured using calipers biweekly throughout the study and tumor volumes were calculated using the formula for an ellipsoid sphere: L×W^2/2=mm^3, where L and W are the major axis dimensions of the tumor in mm. Additional parameters that were monitored were the number of non-specific deaths, number of partial and complete tumor regressions, number of tumor-free survivors, and the time required for individual animals' tumors to reach 2000 mm^3. The median time for a tumor to reach 2000 mm^3 in the treatment groups (T) and control group (C) was used to calculate of the overall delay in the growth of the median tumor (TGD). Animals were monitored individually until reaching the experimental endpoint: tumor size of 2000 mm^3 or 45 days, whichever came first. […] When the study endpoint was reached, the animals were euthanized.

[3] = 20K conjugate xenograft study, 12.5 mg/kg cabazitaxel eq.
[4] = 20K conjugate xenograft study, 25 mg/kg cabazitaxel eq.
[5] = 20K conjugate xenograft study, 10 mg/kg cabazitaxel eq.
[6] = 20K conjugate xenograft study, 20 mg/kg cabazitaxel eq.
[7] = 30K and 40K conjugate xenograft study, 6 mg/kg cabazitaxel eq.
[8] = 30K and 40K conjugate xenograft study, 12 mg/kg cabazitaxel eq.
[9] = 30K and 40K conjugate xenograft study, 10 mg/kg cabazitaxel eq.
[10] = 30K and 40K conjugate xenograft study, 20 mg/kg cabazitaxel eq.
[11] = 30K and 40K conjugate xenograft study
[12] = 30K and 40K conjugate xenograft study, 15 mg/kg cabazitaxel eq.
[13] = 30K and 40K conjugate xenograft study, 30 mg/kg cabazitaxel eq.

4-ARM-PEG20K-Acetate-Linked Cabazitaxel [4-arm-PEG20K-CM-Cabazitaxel]
BW Nadir ([1]; 7.5 mg/kg cabazitaxel eq.): −3.4%
BW Nadir (day) ([1]; 7.5 mg/kg cabazitaxel eq.): 3 days
Treatment-Related Deaths ([1]; 7.5 mg/kg cabazitaxel eq.): 0
BW Nadir ([1]; 15 mg/kg cabazitaxel eq.): −2.0%
BW Nadir (day) ([1]; 15 mg/kg cabazitaxel eq.): 3 days
Treatment-Related Deaths ([1]; 15 mg/kg cabazitaxel eq.): 0
BW Nadir ([1]; 30 mg/kg cabazitaxel eq.): −10.2%
BW Nadir (day) ([1]; 30 mg/kg cabazitaxel eq.): 23 days
Treatment-Related Deaths ([1]; 30 mg/kg cabazitaxel eq.): 0
Estimated MTD, cabazitaxel equivalents ([1]; athymic nu/nu mice, guide value, not a definitive MTD): 25 mg/kg
% TGD [2, 3]: 99%
Median TTE (Median Time to Endpoint) [2, 3]: 36.8 days
TGD (tumor growth delay compared to vehicle) [2, 3]: 18.3 days
CR (Number of Complete Regressions) [2, 3]: 0
Deaths [2, 3]: 0
PR (Number of Partial Regressions) [2, 3]: 0
TFS (Number of Tumor Free Survivors) [2, 3]: 0
% TGD [2, 4]: 154%
MTV (Median Tumor Volume) [2, 4]: 358 mm^3
TGD (tumor growth delay compared to vehicle) [2, 4]: 28.5 days
CR (Number of Complete Regressions) [2, 4]: 0
Deaths [2, 4]: 0
PR (Number of Partial Regressions) [2, 4]: 10
TFS (Number of Tumor Free Survivors) [2, 4]: 0

4-ARM-PEG20K-Alaninate-Linked Cabazitaxel Conjugate [4-arm-PEG20K-CM-alanine-Cabazitaxel]
% TGD [2, 5]: 93%
MTV (Median Tumor Volume) [2, 5]: 908 mm^3
Median TTE (Median Time to Endpoint) [2, 5]: 35.6 days
TGD (tumor growth delay compared to vehicle) [2, 5]: 17.1 days
CR (Number of Complete Regressions) [2, 5]: 0
PR (Number of Partial Regressions) [2, 5]: 0
TFS (Number of Tumor Free Survivors) [2, 5]: 0
% TGD [2, 6]: 154%
MTV (Median Tumor Volume) [2, 6]: 1470 mm^3
TGD (tumor growth delay compared to vehicle) [2, 6]: 28.5 days
CR (Number of Complete Regressions) [2, 6]: 0
PR (Number of Partial Regressions) [2, 6]: 0
TFS (Number of Tumor Free Survivors) [2, 6]: 0

4-ARM-PEG20K-Glycinate-Linked Cabazitaxel Conjugate [4-arm-PEG20K-CM-glycine-Cabazitaxel]
% TGD [2, 5]: 63%
MTV (Median Tumor Volume) [2, 5]: 1200 mm^3
Median TTE (Median Time to Endpoint) [2, 5]: 30.1 days
TGD (tumor growth delay compared to vehicle) [2, 5]: 11.6 days
CR (Number of Complete Regressions) [2, 5]: 0
PR (Number of Partial Regressions) [2, 5]: 0
TFS (Number of Tumor Free Survivors) [2, 5]: 0
% TGD [2, 6]: 154%
MTV (Median Tumor Volume) [2, 6]: 1183 mm^3
TGD (tumor growth delay compared to vehicle) [2, 6]: 28.5 days
CR (Number of Complete Regressions) [2, 6]: 0
PR (Number of Partial Regressions) [2, 6]: 4
TFS (Number of Tumor Free Survivors) [2, 6]: 0

4-ARM-PEG30K-Alaninate-Linked Cabazitaxel Conjugate [4-arm-PEG30K-CM-alanine-Cabazitaxel]
% TGD [2, 7]: 39%
Median TTE (Median Time to Endpoint) [2, 7]: 20.8 days
TGD (tumor growth delay compared to vehicle) [2, 7]: 5.9 days
CR (Number of Complete Regressions) [2, 7]: 0
PR (Number of Partial Regressions) [2, 7]: 0
TFS (Number of Tumor Free Survivors) [2, 7]: 0
% TGD [2, 8]: 158%
MTV (Median Tumor Volume) [2, 8]: 600 mm^3
Median TTE (Median Time to Endpoint) [2, 8]: 38.6 days
TGD (tumor growth delay compared to vehicle) [2, 8]: 23.6 days
CR (Number of Complete Regressions) [2, 8]: 0
PR (Number of Partial Regressions) [2, 8]: 0
TFS (Number of Tumor Free Survivors) [2, 8]: 0

4-ARM-PEG30K-Glycinate-Linked Cabazitaxel Conjugate [4-arm-PEG30K-CM-glycine-Cabazitaxel]
% TGD [2, 9]: 119%
MTV (Median Tumor Volume) [2, 9]: 726 mm^3
Median TTE (Median Time to Endpoint) [2, 9]: 32.7 days
TGD (tumor growth delay compared to vehicle) [2, 9]: 17.8 days
CR (Number of Complete Regressions) [2, 9]: 0
PR (Number of Partial Regressions) [2, 9]: 1
TFS (Number of Tumor Free Survivors) [2, 9]: 0
% TGD [2, 10]: 208%
MTV (Median Tumor Volume) [2, 10]: 478 mm^3
TGD (tumor growth delay compared to vehicle) [2, 10]: 31.1 days
CR (Number of Complete Regressions) [2, 10]: 1
PR (Number of Partial Regressions) [2, 10]: 6
TFS (Number of Tumor Free Survivors) [2, 10]: 1
Complete regression, i.e., no detectable tumor (number of animals) [2, 11]: one

4-ARM-PEG40K-Alaninate-Linked Cabazitaxel Conjugate [4-arm-PEG40K-CM-alanine-Cabazitaxel]
% TGD [2, 9]: 101%
Median TTE (Median Time to Endpoint) [2, 9]: 30.1 days
TGD (tumor growth delay compared to vehicle) [2, 9]: 15.1 days
CR (Number of Complete Regressions) [2, 9]: 0
PR (Number of Partial Regressions) [2, 9]: 0
TFS (Number of Tumor Free Survivors) [2, 9]: 0
% TGD [2, 10]: 208%
MTV (Median Tumor Volume) [2, 10]: 184 mm^3
TGD (tumor growth delay compared to vehicle) [2, 10]: 31.1 days
CR (Number of Complete Regressions) [2, 10]: 1
PR (Number of Partial Regressions) [2, 10]: 4
TFS (Number of Tumor Free Survivors) [2, 10]: 1
Complete regression, i.e., no detectable tumor (number of animals) [2, 11]: one

4-ARM-PEG40K-Glycinate-Linked Cabazitaxel Conjugate [4-arm-PEG40K-CM-glycine-Cabazitaxel]
% TGD [2, 12]: 146%
MTV (Median Tumor Volume) [2, 12]: 1632 mm^3
Median TTE (Median Time to Endpoint) [2, 12]: 36.8 days
TGD (tumor growth delay compared to vehicle) [2, 12]: 21.9 days
CR (Number of Complete Regressions) [2, 12]: 0
PR (Number of Partial Regressions) [2, 12]: 0
TFS (Number of Tumor Free Survivors) [2, 12]: 0
% TGD [2, 13]: 208%
MTV (Median Tumor Volume) [2, 13]: 32 mm^3
TGD (tumor growth delay compared to vehicle) [2, 13]: 31.1 days
CR (Number of Complete Regressions) [2, 13]: 1
TFS (Number of Tumor Free Survivors) [2, 13]: 1
PR (Number of Partial Regressions) ([2]; 30K and 40K conjugate xenograft study, 30 mg/kg cabazitaxel eq., 30 mg/kg): 9
PR (Number of Partial Regressions) ([2]; 30K and 40K conjugate xenograft study, 30 mg/kg cabazitaxel eq., listed as 4-arm-PEG40K-CM-glycine-cabazitaxel, 30 mg/kg): 10
Complete regression, i.e., no detectable tumor (number of animals) [2, 11]: one
